Data reported in article PMC10448230 (RSC Advances, 2023).
Read-outs that look alike come from different tables or passages of the source.

Experiments:
[1] = molecular target: equine butyrylcholinesterase (Equus caballus, UniProt P81908); experiment: Butyrylcholinesterase inhibition; format: biochemical
[2] = molecular target: electric eel acetylcholinesterase (type-IV-S) (Electrophorus electricus, UniProt O42275); experiment: biochemical; format: biochemical
electric eel acetylcholinesterase (type-IV-S), sequence (O42275 24-633): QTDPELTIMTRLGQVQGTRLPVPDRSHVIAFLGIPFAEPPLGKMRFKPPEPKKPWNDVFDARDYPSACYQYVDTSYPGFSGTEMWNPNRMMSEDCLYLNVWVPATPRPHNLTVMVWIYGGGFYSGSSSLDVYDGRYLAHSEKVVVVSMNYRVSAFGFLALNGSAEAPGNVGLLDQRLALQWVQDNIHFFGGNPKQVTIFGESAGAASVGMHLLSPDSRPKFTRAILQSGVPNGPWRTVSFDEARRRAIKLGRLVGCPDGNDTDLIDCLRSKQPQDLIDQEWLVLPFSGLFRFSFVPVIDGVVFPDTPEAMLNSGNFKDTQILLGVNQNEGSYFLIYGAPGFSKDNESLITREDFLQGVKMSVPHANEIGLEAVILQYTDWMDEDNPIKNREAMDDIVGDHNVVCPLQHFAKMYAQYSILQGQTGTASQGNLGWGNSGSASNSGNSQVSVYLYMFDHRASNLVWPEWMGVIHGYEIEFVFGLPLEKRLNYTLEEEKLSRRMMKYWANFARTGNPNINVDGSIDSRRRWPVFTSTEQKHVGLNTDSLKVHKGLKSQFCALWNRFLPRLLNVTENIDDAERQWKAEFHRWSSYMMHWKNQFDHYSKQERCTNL

equine butyrylcholinesterase, sequence (P81908 whole entry): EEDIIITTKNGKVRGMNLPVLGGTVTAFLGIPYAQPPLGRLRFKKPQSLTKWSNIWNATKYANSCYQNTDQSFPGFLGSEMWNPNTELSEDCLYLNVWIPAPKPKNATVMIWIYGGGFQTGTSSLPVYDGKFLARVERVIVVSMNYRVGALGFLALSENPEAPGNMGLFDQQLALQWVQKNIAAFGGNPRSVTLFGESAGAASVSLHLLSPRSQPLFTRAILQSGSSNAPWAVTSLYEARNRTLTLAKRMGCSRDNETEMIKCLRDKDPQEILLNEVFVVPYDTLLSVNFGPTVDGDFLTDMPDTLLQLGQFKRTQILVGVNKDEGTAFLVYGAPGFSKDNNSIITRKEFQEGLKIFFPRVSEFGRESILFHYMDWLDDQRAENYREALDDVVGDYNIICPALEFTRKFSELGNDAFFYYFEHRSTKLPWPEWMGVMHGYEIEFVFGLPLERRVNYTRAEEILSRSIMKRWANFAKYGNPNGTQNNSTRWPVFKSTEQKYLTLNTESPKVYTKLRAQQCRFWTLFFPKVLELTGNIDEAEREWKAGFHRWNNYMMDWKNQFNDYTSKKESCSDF

Molecule | IC50 ([1]; read-out: BChE IC50 (μM) ± SD, NA = not active, galantamine as positive control) | IC50 ([2]; read-out: AChE IC50 (μM) ± SD, NA = not active, galantamine as positive control) | IC50 [1] | IC50 [2]
2,2′-((Thiobis(4,1-phenylene))bis(oxy))bis(N′-((E)-4-fluorobenzylidene)acetohydrazide) [4s] | 36.4 ± 0.702 µM | 91.5 ± 0.615 µM | – | –
CCCC/C=N/NC(=O)COc1ccc(Sc2ccc(OCC(=O)N/N=C/CCCC)cc2)cc1 [4x, 2,2′-((Thiobis(4,1-phenylene))bis(oxy))bis(N′-((E)-pentylidene)acetohydrazide)] | – | – | 103.1 ± 0.877 µM | 186.3 ± 0.876 µM
CCC/C=N/NC(=O)COc1ccc(Sc2ccc(OCC(=O)N/N=C/CCC)cc2)cc1 [4y, 2,2′-((Thiobis(4,1-phenylene))bis(oxy))bis(N′-((E)-butylidene)acetohydrazide)] | – | – | 101.1 ± 0.938 µM | 122.6 ± 0.943 µM
